Results published in patent publication US20150374646A1, “TREATMENT OF CANCER AND OTHER CONDITIONS USING A TRANSCRIPTION FACTOR MODULATOR” (C & C BIOPHARMA, LLC, priority 2013, published 2015).

Columns and labels:
Nalm-6 = test: cells; conditions: Homo sapiens, NALM-6, 72 h, read-out: 72 hr growth inhibition (%)
Method: Various human leukemia cells were grown to the logarithmic growth phase and seeded into 24-well plates. […] Treated cells were further incubated for 72 hours and then were examined for cell proliferation. Cell proliferation was determined using the CellTiter-Glo Luminescence Cell Viability assay (Promega Corporation, Madison, Wis.) according to the manufacturer's protocol. The calculated inhibition rate was determined with the following formula: Inhibition rate (%)=(1−Luminescence of experimental group/Luminescence of control group)×100. IC50 is the calculated concentration of a compound needed to inhibit half of the maximum cell growth (equivalent to cell growth in control group) based on the corresponding dose-response curve under the described experimental conditions.
Growth inhibition experiments were performed as previously described.

CCRF-CEM = test: Cancer cell line growth inhibition, CellTiter-Glo (Example 3); assay type: cell-based; conditions: Homo sapiens, Leukemia, 72 hours, read-out: IC50
Method: (§1) YT30 was tested for growth inhibition against 67 human cancer cell lines derived from diverse tissues including the National Cancer Institute human cancer cell lines (NCI-60). […] Cells in different wells were treated with various concentrations of YT30, YT86, YT88, or YT128. […] Cell viabilities were determined by the CellTiter-Glo Luminescence Cell Viability assay kit (Promega Corporation, Madison, Wis.) according to manufacturer's protocol.

MALME-3M = test: as above; assay type: cell-based; conditions: Homo sapiens, Melanoma, 72 hours
Method: as §1

SN12C = test: as above; assay type: cell-based; conditions: Homo sapiens, Renal, 72 hours, read-out: IC50
Method: as §1

K562 = test: as above; assay type: cell-based; conditions: Homo sapiens, Leukemia, 72 hours, read-out: IC50
Method: as §1

LOX IMVI = test: as above; assay type: cell-based; conditions: Homo sapiens, Melanoma, 72 hours
Method: as §1

HCT116 = test: as above; assay type: cell-based; conditions: Homo sapiens, HCT-116, Colon, 72 hours
Method: as §1

MOLT-4 = test: as above; assay type: cell-based; conditions: Homo sapiens, Leukemia, 72 hours, read-out: IC50
Method: as §1

SK-MEL-2 = test: as above; assay type: cell-based; conditions: Homo sapiens, Melanoma, 72 hours
Method: as §1

M14 = test: as above; assay type: cell-based; conditions: Homo sapiens, Melanoma, 72 hours
Method: as §1

HS 578T = test: as above; assay type: cell-based; conditions: Homo sapiens, Breast, 72 hours, read-out: IC50
Method: as §1

UACC-62 = test: as above; assay type: cell-based; conditions: Homo sapiens, Melanoma, 72 hours
Method: as §1

OVCAR-5 = test: as above; assay type: cell-based; conditions: Homo sapiens, Ovary, 72 hours, read-out: IC50
Method: as §1

EKVX = test: as above; assay type: cell-based; conditions: Homo sapiens, NSCLC, 72 hours
Method: as §1

DU-145 = test: as above; assay type: cell-based; conditions: Homo sapiens, Prostate, 72 hours, read-out: IC50
Method: as §1

TK-10 = test: as above; assay type: cell-based; conditions: Homo sapiens, Renal, 72 hours, read-out: IC50
Method: as §1

SR = test: as above; assay type: cell-based; conditions: Homo sapiens, Leukemia, 72 hours, read-out: IC50
Method: as §1

NCI-H522 = test: as above; assay type: cell-based; conditions: Homo sapiens, NSCLC, 72 hours
Method: as §1

SK-MEL-28 = test: as above; assay type: cell-based; conditions: Homo sapiens, Melanoma, 72 hours
Method: as §1

RPMI-8226 = test: as above; assay type: cell-based; conditions: Homo sapiens, Leukemia, 72 hours
Method: as §1

NCI-H226 = test: as above; assay type: cell-based; conditions: Homo sapiens, NSCLC, 72 hours
Method: as §1

UACC-257 = test: as above; assay type: cell-based; conditions: Homo sapiens, Melanoma, 72 hours
Method: as §1

CAK1 = test: as above; assay type: cell-based; conditions: Homo sapiens, Renal, 72 hours
Method: as §1

A549 = test: as above; assay type: cell-based; conditions: Homo sapiens, NSCLC, 72 hours, read-out: IC50
Method: as §1

Colo 205 = test: as above; assay type: cell-based; conditions: Homo sapiens, Colon, 72 hours
Method: as §1

PC-3 = test: as above; assay type: cell-based; conditions: Homo sapiens, Prostate, 72 hours
Method: as §1

U251 = test: as above; assay type: cell-based; conditions: Homo sapiens, U-251, CNS, 72 hours, read-out: IC50
Method: as §1

A498 = test: as above; assay type: cell-based; conditions: Homo sapiens, Renal, 72 hours, read-out: IC50
Method: as §1

ACHN = test: as above; assay type: cell-based; conditions: Homo sapiens, Renal, 72 hours
Method: as §1

HOP-62 = test: as above; assay type: cell-based; conditions: Homo sapiens, NSCLC, 72 hours
Method: as §1

MDA-MB231 = test: as above; assay type: cell-based; conditions: Homo sapiens, MDA-MB-231; Breast, MDA-MB231; 72 hours; read-out: IC50
Method: as §1

NCI-H23 = test: as above; assay type: cell-based; conditions: Homo sapiens, NSCLC, 72 hours
Method: as §1

What does the source list for Nc1ccccc1NC(=O)CCCCCC(=O)Nc1cccc(Br)c1 [YT30]?
inhibition at 0.5 µM (Nalm-6): 2.5%; inhibition at 1 µM (Nalm-6): 8.4%; IC50 (CCRF-CEM): 1530 nM; IC50 (MALME-3M): 5.84 µM; IC50 (SN12C): 9.52 µM; IC50 (K562): 1820 nM; IC50 (LOX IMVI): 3.03 µM; IC50 (HCT116): 13 µM; IC50 (MOLT-4): 1130 nM; IC50 (SK-MEL-2): 4.6 µM; IC50 (M14): 6.13 µM; IC50 (HS 578T): 10.8 µM; IC50 (UACC-62): 5.2 µM; IC50 (OVCAR-5): 11.9 µM; IC50 (EKVX): 4.57 µM; IC50 (DU-145): 4.98 µM; IC50 (TK-10): 16.1 µM; IC50 (SR): 6.89 µM; IC50 (NCI-H522): 8.15 µM; IC50 (SK-MEL-28): 5.99 µM; IC50 (RPMI-8226): 2000 nM; IC50 (NCI-H226): 12.7 µM; IC50 (UACC-257): 6.1 µM; IC50 (CAK1): 11.7 µM; IC50 (A549): 3.41 µM; IC50 (Colo 205): 14.4 µM; IC50 (PC-3): 9.79 µM; IC50 (U251): 7.36 µM; IC50 (A498): 13.9 µM; IC50 (ACHN): 12.5 µM; IC50 (HOP-62): 29.6 µM; IC50 (MDA-MB231): 14.2 µM; IC50 (NCI-H23): 11 µM
